Results reported in US10022342B2, “Methods and compositions for treating multiple myeloma” (Ohio State Innovation Foundation, priority 2015, dated 2018).

How the values were obtained:
Type in all cases: cell-based, human
[1] = system: MM cell lines (MM.1S, U266, RPMI-8226, MM.1R); assay: Annexin V-PI apoptosis, single-agent AR-42 in MM cell lines; details: 0.1 μM, 24-hr; all MM cell lines tested
Procedure: Growth inhibitory and pro-apoptotic properties of AR-42 as a single agent treatment agent have been reported previously in numerous malignancies, including MM. Because of the potent immunomodulatory effects observed with classical pan-HDACi's, immunology-related gene networks altered upon AR-42 treatment in MM cells were investigated using nCounter technology to analyze the effects of AR-42 on the expression of 511 human genes in MM.1S cells following 24-hr treatment with 0.1 μM AR-42.
(§1) CD44 surface expression was analyzed by staining cells with CD44-FITC antibody (BD Biosciences) for 30 min. in the dark, at room temperature. Apoptosis was measured by Annexin V-FITC and Propidium Iodide (PI) (Clontech) staining for 15 min. in the dark, at room temperature and data immediately acquired on a Beckman Coulter FC500 (Beckman Coulter) machine. Analysis was conducted using the FlowJo Software vX.0.7 (Tree Star Inc.). For the multiparametric analysis, the bone marrow samples were stained with CD38-PE (347687; BD Bioscience), CD138-APC (347193; BD Bioscience), CD45-ECD (A07784; Beckman Coulter), CD44-FITC (BD Bioscience) and AnnexinV-FITC (Clontech) for 30 minutes, washed with PBS and immediately analyzed with Gallios cytometer (Beckman Coulter).

CD48 = CD48 protein and mRNA expression in MM.1S cells; details: 48 hours
Procedure: The down-regulation of CD44 cell surface expression was also observed by flow cytometry in all MM cell lines tested expressing detectable CD44 levels (FIG. 1D, FIGS. 2E-2F and data not shown).
Cells were harvested by centrifugation, washed with PBS and lysed using buffer composed of 50 mM Tris (pH 7.5), 150 mM NaCl, 10% glycerol, 1.0% NP-40, 0.1% SDS, supplemented with protease and phosphatase inhibitors. Protein concentrations were estimated by Bradford assay and equivalent quantities of the lysates were resolved on 4-20% Tris-HCl SDS-PAGE TGX gels (Bio-Rad). Proteins were transferred to nitrocellulose membranes and stained for acetyl-histone H3 (Milipore), acetyl-histone H4 (Milipore), IGF2BP1 (Cell Signaling Technology), IGF2BP3 (IMP-3, Santa Cruz Biotechnology), CD44 (Santa Cruz Biotechnology), CD48 (Abcam), Drosha (Cell Signaling Technology), or glyceraldehyde 3-phosphate dehydrogenase (GAPDH, Cell Signaling Technology), followed by anti-mouse, or anti-rabbit IgG-HRP (GE Healthcare). Signals were developed using Pierce ECL Western Blotting Substrate (Thermo Fisher Scientific).

[2] = system: pri-miR-9-1, pri-miR-9-2, pri-miR-9-3; assay: pri-miR-9 primary transcripts by qRT-PCR in MM.1S cells; details: vs controls
Procedure: Because human miR-9-5p is encoded by three distinct genomic loci (i.e., primary (pri)-miR-9-1 on chromosome 1 (q22), pri-miR-9-2 on chromosome 5 (q14.3), and pri-miR-9-3 on chromosome 15 (q26.1)), the identity of the locus responsible for miR-9up-regulation in response to AR-42 was investigated.
Quantitative real time-PCR (qRT-PCR) was performed with the TaqMan method (Applied Biosystems), according to the manufacturer's instructions, and analyzed with the 7900HT Sequence Detection System (Applied Biosystems). The appropriate TaqMan probes for mRNA, miRNA, and pri-miRNA quantification were purchased from Applied Biosystems, and all reactions were performed in triplicate. The following probes were used: hsa-miR-9-5p (000583), hsa-mir-9-1 (Hs03303201_pri), hsa-miR-9-2 (Hs03303202_pri), hsa-mir-9-3 (Hs03293595_pri), CD44 (Hs01075861_ml), IGF2BP3 (Hs00559907_g1). Simultaneous quantification of ornithine decarboxylase antizyme 1 (OAZ1), or GAPDH mRNAs were used as a reference for mRNA data normalization, while small endogenous nucleolar RNA U44/U48, or U6 were used for miRNA normalization. The relative expression levels were calculated by the comparative cycle threshold (Ct) method (User Bulletin #2; Applied Biosystems). Expression analyses of pre-miRNA was performed with SYBR green PCR master mix (Applied Biosystems) and normalized for U6 RNA. […]

[3] = system: U266, RPMI, and MM1S cells; assay: Apoptosis (annexin) and necrosis (propidium iodide) by HDAC inhibitors, FIG. 15; details: 24 and 48 hours, 0.25, 0.5, and 1 μM
Procedure: Apoptosis was measured by annexin staining while cell necrosis was measured by propidium iodide staining.
as §1

## CC(C)[C@H](C(=O)Nc1ccc(C(=O)NO)cc1)c1ccccc1 [AR-42, (S)-N-hydroxy-4-(3-methyl-2-phenylbutanamido)benzamide]
[1]
  apoptosis by Annexin V-PI staining: without significant increase of apoptosis
CD48
  CD48 protein and mRNA levels: consistent up-regulation
[2]
  primary transcripts of miR-9-5p: dose dependent changes
[3]
  apoptosis (annexin staining): highest level of apoptosis
  cell necrosis (propidium iodide staining): lowest levels of cell necrosis
